Measured values reported in article PMC3188330 (2011).

Experiments:
[1] = biological target: T1, UGT1A10 (Homo sapiens, UniProt Q9HAW8); assay: glucuronidation rate at […]; type: cell-based
T1 sequence (Q9HAW8 26-530): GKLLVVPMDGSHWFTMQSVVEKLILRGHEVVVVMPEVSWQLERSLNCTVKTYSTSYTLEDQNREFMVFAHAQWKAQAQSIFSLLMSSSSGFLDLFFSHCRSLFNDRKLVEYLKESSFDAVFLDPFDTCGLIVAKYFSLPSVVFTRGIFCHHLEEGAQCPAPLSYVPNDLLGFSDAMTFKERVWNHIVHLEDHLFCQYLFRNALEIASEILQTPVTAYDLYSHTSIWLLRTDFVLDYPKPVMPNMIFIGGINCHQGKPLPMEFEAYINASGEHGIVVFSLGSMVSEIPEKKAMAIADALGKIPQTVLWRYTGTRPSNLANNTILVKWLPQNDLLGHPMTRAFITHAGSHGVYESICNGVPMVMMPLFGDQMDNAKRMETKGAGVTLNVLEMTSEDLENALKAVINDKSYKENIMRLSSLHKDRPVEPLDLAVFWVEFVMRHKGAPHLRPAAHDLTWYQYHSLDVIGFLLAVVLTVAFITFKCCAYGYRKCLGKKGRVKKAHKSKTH

[2] = biological target: T1, UGT1A10; assay: glucuronidation rate at […]; type: cell-based; remark: listed apart in the source

Row | SMILES | glucuronidation rate at 100 μM (HPLC) [1] | glucuronidation rate at 500 μM (HPLC) [2]
1 | Oc1cccc2ccccc12 [1-naphthol] | F93L catalyzed 1-naphthol glucuronidation at about twice the rate of the control UGT1A10 | –
2 | COc1cc2ccc(=O)oc2cc1O [scopoletin] | – | majority of the mutants were higher than control, up to six fold the (normalized) rate of UGT1A10
